Assay [1] deals with IL-6. Here is the method: GLA was formulated in DPPC (1,2-dipalmitoyl-sn-glycero-3-phosphocholine) as GLA:DPPC 1:2 (M:M) in Millipore (sterile) water. Animals were sedated with ketamine (5 mg/kg to 10 mg/kg)/dexmedetomidine (0.01 mg/kg to 0.016 mg/kg), IM (intramuscularly), while in their cage. Once sedated, they were brought into the laboratory and placed onto a circulating water heating pad (Gaymar). Sublingual (right side) and left cheek pouch mucosal brushings were taken 15 minutes prior to dosing using Copan FLOQSwabs™ and placed into RLT buffer (QIAmp Minikit Plus, Qiagen), vortexed and immediately frozen on dry ice. Sublingual dosing of GLA (100 μl dosed via syringe) was performed under the right side of the animals tongue and allowed to absorb into the mucosa for three minutes. Further sublingual and cheek brushings were obtained at 6 hr, 24 hr and 48 hr post dosing.
RNA processing was performed from the cheek and sublingual swabs using a QIAmp Minikit Plus (Qiagen) which includes a gDNA (genomic DNA) eliminator column. Gene expression was quantified using the Comparative CT Method, which calculates the relative gene expression quantitation between a target gene and an endogenous control. All target genes were quantitated relative to the expression of the housekeeping gene ARL1. Using the relative expression, the fold of baseline expression was calculated as [(Relative gene expression at time point of interest)/(Baseline relative gene expression)].

Assay [2] deals with Ova-specific OT-II TcR transgenic T cells. Nature of the assay: Antigen-specific OT-II T cell proliferation after sublingual administration (cell-tracker dye, flow cytometry). The conditions noted are these: GLA 0.2 μg, OVa323-339 peptide 10 μg, four days later (FIGS. 4A, 4C, 4E). The format is in vivo, mice. On the procedure: Ova-specific OT-II TcR transgenic T cells were labeled with cell-tracker violet dye and adoptively transferred into syngeneic wild type mice. Mice then received sublingual administration of GLA (0.2 μg) alone (FIGS. 4A and 4B), OVa323-339 peptide (10 μg) alone (FIGS. 4C and 4D), or GLA co-administered with Ova peptide (FIGS. 4E and 4F). Four days later, the draining cervical lymph nodes (FIGS. 4A, 4C, and 4E) and spleen (FIGS. 4B, 4D, and 4F) were removed and OT-II T cell proliferation (via the decrease in cell-tracker dye fluorescence) was measured by flow cytometry.
Methods. Sublingual administration was performed as described above in Example 1.
Formulations of Ova peptide and/or GLA included methylcellulose as described in Example 1. Mixtures of methylcellulose+Ova peptide, and methylcellulose+Ova peptide+GLA were prepared the day before dosing.
Ova-specific OT-II TcR transgenic T cells were labeled with cell-tracker violet dye and adoptively transferred into syngeneic wild type mice. Mice then received sublingual administration of GLA (0.2 μg, 0.02 μg or 0.002 μg) co-administered with OVa323-339 peptide or peptide without GLA (0 mg). Four days later, cervical lymph nodes were removed and OT-II T cell proliferation (via the decrease in cell-tracker dye fluorescence) was measured by flow cytometry.
In general terms: Flow cytometry measures light scatter and fluorescence of single cells or particles in a stream.

[3] abbreviates: six hours after sublingual administration.

As to `CCCCCCCCCCCCCC(=O)O[C@H](CCCCCCCCCCC)CC(=O)O[C@@H]1[C@@H](NC(=O)C[C@H](CCCCCCCCCCC)OC(=O)CCCCCCCCCCCCC)[C@H](OC[C@H]2O[C@H](O)[C@H](NC(=O)C[C@H](O)CCCCCCCCCCC)[C@@H](OC(=O)C[C@H](O)CCCCCCCCCCC)[C@@H]2O)O[C@H](CO)[C@H]1OP(=O)(O)O` [GLA, Glucopyranosyl Lipid A], the “IL-6 expression 24 hours after sublingual administration” value in assay [1] (24 hours after sublingual administration) was “not detected”. In assay [1] (current formulation GLA:DPPC 1:2, sublingual), the “duration of local action within the oral cavity” value was not above 1 days. In addition, in assay [1] (setting [3]), the “IL-6 in brushings from the cheek” value is “not detected” and the “IL-6 in the blood” value is reported as “not detected”. Also, in assay [1] (six hours after sublingual administration, 3 different doses of GLA), the “IL-6 expression in sublingual mucosal brushings” value is listed as “dose-dependent expression of IL-6”. The “antigen-specific T cell proliferation in the draining cervical lymph nodes” value in assay [2] is listed as “not”.

With “OVa323-339 peptide: Ova peptide antigen recognised by OT-II TcR transgenic T cells (KISQAVHAAHAEINEAG; UniProt P01012 323-339, looked up, fragment)”, in assay [2], the “antigen-specific T cell proliferation in the draining cervical lymph nodes” value was “not”.

(Values after patent US20160310589A1, “Glucopyranosyl Lipid A and Allergen Formulations For Sublingual Administration” (Sanofi, priority 2015, published 2016).)
